Source: ChEMBL document CHEMBL5726270, “1-pyrazolyl-3-(4-((2-anilinopyrimidin-4-yl)oxy)napththalen-1-yl) ureas as P38 MAP knase inhibitors” (2017)

Biological target: T1, Mitogen-activated protein kinase 12 (Homo sapiens, UniProt P53778)
T1 sequence (P53778 whole entry): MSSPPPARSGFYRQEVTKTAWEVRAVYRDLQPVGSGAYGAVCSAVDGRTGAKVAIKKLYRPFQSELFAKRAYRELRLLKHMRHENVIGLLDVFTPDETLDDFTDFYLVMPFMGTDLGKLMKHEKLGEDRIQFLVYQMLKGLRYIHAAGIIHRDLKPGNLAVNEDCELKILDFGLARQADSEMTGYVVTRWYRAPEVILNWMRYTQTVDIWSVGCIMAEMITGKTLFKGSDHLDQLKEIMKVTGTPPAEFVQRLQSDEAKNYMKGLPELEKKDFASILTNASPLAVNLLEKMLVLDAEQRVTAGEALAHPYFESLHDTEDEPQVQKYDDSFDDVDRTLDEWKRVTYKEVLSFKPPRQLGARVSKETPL
Assay: p38 MAPKγ Enzyme Inhibition: The inhibitory activities of compounds of the invention against p38MAPKγ (MAPK12: Invitrogen), were evaluated in a similar fashion to that described hereinabove. The enzyme (800 ng/mL, 2.5 μL) was incubated with the test compound (2.5 μL at either 4 μg/mL, 0.4 μg/mL, 0.04 μg/mL, or 0.004 μg/mL) for 2 hr at RT. The FRET peptides (8 μM, 2.5 μL), and appropriate ATP solution (2.5 μL, 400 μM) was then added to the enzymes/compound mixtures and incubated for 1 hr. Development reagent (protease, 5 μL) was added for 1 hr prior to detection in a fluorescence microplate reader (Varioskan® Flash, Thermo Scientific).

IC50: > 15.1 µM
SMILES: Cc1ccc(-n2nc(C(C)(C)C)cc2NC(=O)Nc2ccc(Oc3ccnc(Nc4ccccc4Cl)n3)c3ccccc23)cc1
